# From patent US20240140957A1, “BRIDGED COMPOUNDS AS KRAS G12D INHIBITOR AND DEGRADER AND THE USE THEREOF” (BeiGene Switzerland GmbH, priority 2021, published 2024)
# Legend:
# Type in all cases: binding
# [1] = molecular target: KRAS G12D:SOS1 (Homo sapiens, UniProt P01116, G12D); test: KRAS G12D:SOS1 GDP TR-FRET assay; conditions: GST-KRAS G12D 37.5 nM, GDP 10 μM, His-SOS1 18 nM
# Description: (§1) KRAS:SOS1 GDP TR-FRET Assay
# (§2) This assay was used to identify compounds which competitively interact with the binding of KRAS protein to SOS1 in the presence of GDP. […] All protein and reaction solutions were prepared in assay buffer containing DPBS pH7.5, 0.1% BSA, and 0.05% Tween 20. Purified GST-tagged WT KRAS or KRAS G12D protein (37.5 nM final assay concentration) and GDP (Sigma, 10 μM final assay concentration) mixture, a serially diluted compound (top final concentration is 50 μM or 10 uM, 3-fold serially diluted, 10 points) and His-tagged SOS1 protein (18 nM final assay concentration) were added into the assay plates (384 well microplate, black, Corning) sequentially. Plates are incubated at 24° C. for 1 hr. Following the incubation, Mab Anti-GST-Tb cryptate (Cisbio) and […] (Cisbio) were added and further incubated at 24° C. for another 1 hr. The TR-FRET signals (ex337 nm, em665 nm/620 nm) were read on BMG PHERAstar FSX instrument. The inhibition percentage of KRAS protein binding with SOS1 in presence of increasing concentrations of compounds was calculated based on the ratio of fluorescence at 665 nm to that at 620 nm. The IC50 value of each compound was calculated from fitting the data to the four-parameter logistic model by Dotmatics.
# [2] = molecular target: WT KRAS:SOS1 (Homo sapiens, UniProt P01116); test: KRAS WT:SOS1 GDP TR-FRET assay; conditions: GST-WT KRAS 37.5 nM, GDP 10 μM, His-SOS1 18 nM
# WT KRAS:SOS1, sequence (P01116 1-188 isoform P01116-2): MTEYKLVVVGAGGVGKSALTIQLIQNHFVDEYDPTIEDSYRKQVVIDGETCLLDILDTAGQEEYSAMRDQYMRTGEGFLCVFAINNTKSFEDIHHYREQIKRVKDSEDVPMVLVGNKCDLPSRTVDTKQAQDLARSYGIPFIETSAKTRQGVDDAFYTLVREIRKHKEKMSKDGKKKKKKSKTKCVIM
# Description: as §1, §2
# [3] = molecular target: GDP-loaded KRAS G12D (Homo sapiens, UniProt P01116, G12D); test: KRAS G12D Probe Displacement Assay; conditions: KRAS G12D 0.5 nM, biotinylated probe 2 4 nM; Table 6 letters; read-out: KRAS G12D Probe Displacement Assay IC50 (class)
# GDP-loaded KRAS G12D, sequence (P01116 1-188 isoform P01116-2 G12D): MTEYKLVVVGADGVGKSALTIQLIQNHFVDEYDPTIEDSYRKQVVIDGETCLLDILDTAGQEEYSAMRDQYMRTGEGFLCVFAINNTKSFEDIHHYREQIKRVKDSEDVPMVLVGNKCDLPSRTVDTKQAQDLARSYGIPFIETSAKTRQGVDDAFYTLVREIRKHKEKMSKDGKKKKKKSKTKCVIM
# KRAS G12D:SOS1, sequence (P01116 1-188 isoform P01116-2 G12D): as above
compound,measurement,setting,value
"CN(C)C1CN(c2nc(N3CCNCC3)c3cc(Cl)c(-c4cc(O)cc5ccccc45)c(F)c3n2)C1 [Example E2, 4-(6-chloro-2-(3-(dimethylamino)azetidin-1-yl)-8-fluoro-4-(piperazin-1-yl)quinazolin-7-yl)naphthalen-2-ol]",IC50,[1],4850 nM
same,IC50,[2],> 50000 nM
"C[C@@H](CN1CC(F)(F)C1)Oc1nc(N2CC3CCC(C2)N3)c2cc(Cl)c(-c3ccc(F)c4sc(N)nc34)c(F)c2n1 [Example E32, 4-(4-(3,8-diazabicyclo[3.2.1]octan-3-yl)-6-chloro-2-(((S)-1-(3,3-difluoroazetidin-1-yl)propan-2-yl)oxy)-8-fluoroquinazolin-7-yl)-7-fluorobenzo[d]thiazol-2-amine]",IC50,[1],81 nM
same,IC50,[2],> 10000 nM
"Nc1nc2c(-c3c(Cl)cc4c(N5CCNCC5)nc(OCCCN5CCN(CCCOCCC(=O)NCCOCCNC(=O)CCCC[C@@H]6SC[C@@H]7NC(=O)N[C@@H]76)CC5)nc4c3F)ccc(F)c2s1 [Example E56, N-(2-(2-(3-(3-(4-(3-((7-(2-amino-7-fluorobenzo[d]thiazol-4-yl)-6-chloro-8-fluoro-4-(piperazin-1-yl)quinazolin-2-yl)oxy)propyl)piperazin-1-yl)propoxy)propanamido)ethoxy)ethyl)-5-((3 aS, 4S,6aR)-2-oxohexahydro-1H-thieno[3,4-d]imidazol-4-yl)pentanamide]",IC50,[1],21 nM
same,IC50,[2],370 nM
"CS(=O)(=O)N1CCN(c2nc(OC[C@@H]3CCCN3CCCOCCC(=O)NCCOCCNC(=O)CCCC[C@@H]3SC[C@@H]4NC(=O)N[C@@H]43)nc3c2CCN(c2cccc4cccc(Cl)c24)C3)C[C@@H]1CC#N [Example E57, N-(2-(2-(3-(3-((S)-2-(((7-(8-chloronaphthalen-1-yl)-4-((S)-3-(cyanomethyl)-4-(methylsulfonyl)piperazin-1-yl)-5,6,7,8-tetrahydropyrido[3,4-d]pyrimidin-2-yl)oxy)methyl)pyrrolidin-1-yl)propoxy)propanamido)ethoxy)ethyl)-5-((3aS,4S,6aR)-2-oxohexahydro-1H-thieno[3,4-d]imidazol-4-yl)pentanamide]",IC50,[1],> 10000 nM
same,IC50,[2],130 nM
"Cc1cc(N)nc(-c2c(Cl)cc3c(N4CC5CCC(C4)N5)nc(OCC45COC(C4)C5)nc3c2F)c1C(F)(F)F [Example E224, 6-(2-((2-oxabicyclo[2.1.1]hexan-4-yl)methoxy)-4-(3,8-diazabicyclo[3.2.1]octan-3-yl)-6-chloro-8-fluoroquinazolin-7-yl)-4-methyl-5-(trifluoromethyl)pyridin-2-amine]",IC50,[3],< 50 nM
"Cc1cc(N)nc(-c2c(Cl)cc3c(N4CC5CCC(C4)N5)nc(OCC4(C)CCC(=O)NC4)nc3c2F)c1C(F)(F)F (stereo not shown) [Example E225, 5-(((7-(6-amino-4-methyl-3-(trifluoromethyl)pyridin-2-yl)-4-(3,8-diazabicyclo[3.2.1]octan-3-yl)-6-chloro-8-fluoroquinazolin-2-yl)oxy)methyl)-5-methylpiperidin-2-one]",IC50,[3],< 50 nM
"CC(=O)N1CC(COc2nc(N3CC4CCC(C3)N4)c3cc(Cl)c(-c4nc(N)cc(C)c4C(F)(F)F)c(F)c3n2)C1 [Example E226, 1-(3-(((7-(6-amino-4-methyl-3-(trifluoromethyl)pyridin-2-yl)-4-(3,8-diazabicyclo[3.2.1]octan-3-yl)-6-chloro-8-fluoroquinazolin-2-yl)oxy)methyl)azetidin-1-yl)ethan-1-one]",IC50,[3],< 50 nM
"Cc1cc(N)nc(-c2c(Cl)cc3c(N4CC5CCC(C4)N5)nc(OCC4(CO)CC(F)C4)nc3c2F)c1C(F)(F)F (stereo not shown) [Example E227, (1-(((7-(6-amino-4-methyl-3-(trifluoromethyl)pyridin-2-yl)-4-(3,8-diazabicyclo[3.2.1]octan-3-yl)-6-chloro-8-fluoroquinazolin-2-yl)oxy)methyl)-3-fluorocyclobutyl)methanol]",IC50,[3],< 50 nM
"Cc1cc(N)nc(-c2c(Cl)cc3c(N4CC5CCC(C4)N5)nc(OCC4CS(=O)(=O)C4)nc3c2F)c1C(F)(F)F [Example E228, 3-(((7-(6-amino-4-methyl-3-(trifluoromethyl)pyridin-2-yl)-4-(3,8-diazabicyclo[3.2.1]octan-3-yl)-6-chloro-8-fluoroquinazolin-2-yl)oxy)methyl)thietane 1,1-dioxide]",IC50,[3],< 50 nM
"Cc1cc(N)nc(-c2c(Cl)cc3c(N4CC5CCC(C4)N5)nc(OCC45CCC(CC4)OC5)nc3c2F)c1C(F)(F)F [Example E229, 6-(2-((2-oxabicyclo[2.2.2]octan-4-yl)methoxy)-4-(3,8-diazabicyclo[3.2.1]octan-3-yl)-6-chloro-8-fluoroquinazolin-7-yl)-4-methyl-5-(trifluoromethyl)pyridin-2-amine]",IC50,[3],< 50 nM
"Cc1cc(N)nc(-c2c(Cl)cc3c(N4CC5CCC(C4)N5)nc(OCC4(CO)CCOC4)nc3c2F)c1C(F)(F)F (stereo not shown) [Example E230, (3-(((7-(6-amino-4-methyl-3-(trifluoromethyl)pyridin-2-yl)-4-(3,8-diazabicyclo[3.2.1]octan-3-yl)-6-chloro-8-fluoroquinazolin-2-yl)oxy)methyl)tetrahydrofuran-3-yl)methanol]",IC50,[3],< 50 nM
"Cc1cc(N)nc(-c2c(Cl)cc3c(N4CC5CCC(C4)N5)nc(OCC4C5COCC54)nc3c2F)c1C(F)(F)F (stereo not shown) [Example E231, 6-(2-((3-oxabicyclo[3.1.0]hexan-6-yl)methoxy)-4-(3,8-diazabicyclo[3.2.1]octan-3-yl)-6-chloro-8-fluoroquinazolin-7-yl)-4-methyl-5-(trifluoromethyl)pyridin-2-amine]",IC50,[3],100 to 1000 nM
"CC(=O)N1CCC(COc2nc(N3CC4CCC(C3)N4)c3cc(Cl)c(-c4nc(N)cc(C)c4C(F)(F)F)c(F)c3n2)C1 (stereo not shown) [Example E232, 1-(3-(((7-(6-amino-4-methyl-3-(trifluoromethyl)pyridin-2-yl)-4-(3,8-diazabicyclo[3.2.1]octan-3-yl)-6-chloro-8-fluoroquinazolin-2-yl)oxy)methyl)pyrrolidin-1-yl)ethan-1-one]",IC50,[3],< 50 nM
"COC(C)(CO)COc1nc(N2CC3CCC(C2)N3)c2cc(Cl)c(-c3nc(N)cc(C)c3C(F)(F)F)c(F)c2n1 (stereo not shown) [Example E233, 3-((7-(6-amino-4-methyl-3-(trifluoromethyl)pyridin-2-yl)-4-(3,8-diazabicyclo[3.2.1]octan-3-yl)-6-chloro-8-fluoroquinazolin-2-yl)oxy)-2-methoxy-2-methyl propan-1-ol]",IC50,[3],< 50 nM
"CC(=O)N1CCCC(COc2nc(N3CC4CCC(C3)N4)c3cc(Cl)c(-c4nc(N)cc(C)c4C(F)(F)F)c(F)c3n2)C1 (stereo not shown) [Example E234, 1-(3-(((7-(6-amino-4-methyl-3-(trifluoromethyl)pyridine-2-yl)-4-(3,8-diazabicyclo[3.2.1]octan-3-yl)-6-chloro-8-fluoroquinazolin-2-yl)oxy)methyl)piperidin-1-yl)ethan-1-one]",IC50,[3],50 to 100 nM
"CC12CC(COc3nc(N4CC5CCC(C4)N5)c4cc(C(F)(F)F)c(-c5ccc(F)c6sc(N)c(C#N)c56)c(F)c4n3)(CO1)C2 [Example E235, 4-(4-(3,8-diazabicyclo[3.2.1]octan-3-yl)-8-fluoro-2-((1-methyl-2-oxabicyclo[2.1.1]hexan-4-yl)methoxy)-6-(trifluoromethyl)quinazolin-7-yl)-2-amino-7-fluoro benzo[b]thiophene-3-carbonitrile]",IC50,[3],< 50 nM
"N#Cc1c(N)sc2c(F)ccc(-c3c(C(F)(F)F)cc4c(N5CC6CCC(C5)N6)nc(OCC56COC(C5)C6)nc4c3F)c12 [Example E236, 4-(2-((2-oxabicyclo[2.1.1]hexan-4-yl)methoxy)-4-(3,8-diazabicyclo[3.2.1]octan-3-yl)-8-fluoro-6-(trifluoromethyl)quinazolin-7-yl)-2-amino-7-fluorobenzo [b]thiophene-3-carbonitrile]",IC50,[3],< 50 nM
"Nc1cc(-c2cc3nc(OC[C@@]45CCCN4C[C@H](F)C5)nc(N4CC5CCC(C4)N5)c3cc2Cl)c(C(F)(F)F)c(C(F)(F)F)c1 [Example E237, 3-(4-(3,8-diazabicyclo[3.2.1]octan-3-yl)-6-chloro-2-(((2R,7aS)-2-fluorotetrahydro-1H-pyrrolizin-7a(5H)-yl)methoxy)quinazolin-7-yl)-4,5-bis (trifluoromethyl) aniline]",IC50,[3],< 50 nM
